Reference: the NIST ThermoML archive (doi:10.1021/je0502344)

What was measured:
[1] = 101.33 kPa, Liquid
[2] = xn = mol fraction of the nth substance listed; conditions: 101.33 kPa, Liquid

CCO [ethanol]
[1]
Conditions	mass density [kg/m3]	viscosity [mPa·s]
298.15 K	785.08	1.088
308.15 K	778.09	0.897
318.15 K	763.91	0.767

CCCCCCCCC=O [nonanal]
[1]
Conditions	mass density [kg/m3]	viscosity [mPa·s]
298.15 K	831.04	1.392
308.15 K	818.01	1.251
318.15 K	804.72	1.127

CCCCCC=O [hexanal] + CCO
[2]
Conditions	mass density, 298.15 K [kg/m3]	mass density, 308.15 K [kg/m3]	mass density, 318.15 K [kg/m3]	viscosity, 298.15 K [mPa·s]	viscosity, 308.15 K [mPa·s]	viscosity, 318.15 K [mPa·s]
x1 = 0.1094	788	780.57	766.36	1.053	0.875	0.752
x1 = 0.2049	791.01	783.13	768.9	1.023	0.857	0.739
x1 = 0.3226	795.33	786.81	772.53	0.987	0.834	0.723
x1 = 0.4037	798.69	789.67	775.36	0.963	0.819	0.712
x1 = 0.5027	803.22	793.52	779.17	0.935	0.801	0.7
x1 = 0.6207	809.24	798.64	784.23	0.902	0.78	0.685
x1 = 0.7108	814.29	802.93	788.47	0.878	0.764	0.674
x1 = 0.81	820.3	808.04	793.53	0.852	0.747	0.662
x1 = 0.9226	827.69	814.32	799.74	0.824	0.729	0.648
x1 = 1	833.12	818.94	804.31	0.805	0.716	0.639

CCCCCCCC=O [octanal] + CCO
[2]
Conditions	mass density, 298.15 K [kg/m3]	mass density, 308.15 K [kg/m3]	mass density, 318.15 K [kg/m3]	viscosity, 298.15 K [mPa·s]	viscosity, 308.15 K [mPa·s]	viscosity, 318.15 K [mPa·s]
x1 = 0.1077	787.23	779.83	765.7	1.1	0.915	0.786
x1 = 0.2019	789.45	781.64	767.54	1.11	0.93	0.803
x1 = 0.3178	792.62	784.21	770.18	1.122	0.95	0.825
x1 = 0.3977	795.08	786.22	772.23	1.131	0.964	0.84
x1 = 0.4952	798.4	788.92	774.99	1.142	0.981	0.859
x1 = 0.6115	802.81	792.5	778.66	1.155	1.001	0.883
x1 = 0.7003	806.51	795.5	781.74	1.165	1.018	0.901
x1 = 0.798	810.9	799.07	785.39	1.176	1.036	0.921
x1 = 0.9089	816.3	803.46	789.88	1.189	1.057	0.945
x1 = 1	821.07	807.34	793.85	1.2	1.074	0.965

CCCCCCCCC=O [nonanal] + CCO
[2]
Conditions	mass density, 298.15 K [kg/m3]	mass density, 308.15 K [kg/m3]	mass density, 318.15 K [kg/m3]	viscosity, 298.15 K [mPa·s]	viscosity, 308.15 K [mPa·s]	viscosity, 318.15 K [mPa·s]
x1 = 0.1034	787.7	780.37	766.24	1.116	0.928	0.798
x1 = 0.2039	790.72	782.99	768.92	1.144	0.96	0.83
x1 = 0.293	793.79	785.65	771.64	1.169	0.989	0.859
x1 = 0.3939	797.7	789.05	775.11	1.199	1.023	0.893
x1 = 0.5045	802.52	793.24	779.4	1.232	1.061	0.931
x1 = 0.5943	806.85	797	783.24	1.26	1.093	0.964
x1 = 0.7116	813.07	802.4	788.76	1.297	1.137	1.009
x1 = 0.7855	817.31	806.08	792.53	1.32	1.165	1.038
x1 = 0.898	824.25	812.11	798.69	1.357	1.209	1.084
x1 = 1	831.04	818.01	804.72	1.392	1.251	1.127

CCO [ethanol] + CCCCCCCC=O
[2], x2 = 0
Conditions	mass density [kg/m3]	viscosity [mPa·s]
298.15 K	785.08	1.088
308.15 K	778.09	0.897
318.15 K	763.91	0.767

CCO [ethanol] + CCCCCC=O
[2], x2 = 0
Conditions	mass density [kg/m3]	viscosity [mPa·s]
298.15 K	785.08	1.088
308.15 K	778.09	0.897
318.15 K	763.91	0.767

CCO [ethanol] + CCCCCCCCCC=O
[2], x2 = 0
Conditions	mass density [kg/m3]	viscosity [mPa·s]
298.15 K	785.08	1.088
308.15 K	778.09	0.897
318.15 K	763.91	0.767

CCCCCC=O [hexanal]
[1]
Conditions	mass density [kg/m3]	viscosity [mPa·s]
298.15 K	833.12	0.805
308.15 K	818.94	0.716
318.15 K	804.31	0.639

CCCCCCCCCC=O [decanal]
[1]
Conditions	mass density [kg/m3]	viscosity [mPa·s]
298.15 K	801.24	1.56
308.15 K	789.05	1.412
318.15 K	776.18	1.281

CCO [ethanol] + CCCCCCCCC=O
[2], x2 = 0
Conditions	mass density [kg/m3]	viscosity [mPa·s]
298.15 K	785.08	1.088
308.15 K	778.09	0.897
318.15 K	763.91	0.767

CCCCCCCC=O [octanal]
[1]
Conditions	mass density [kg/m3]	viscosity [mPa·s]
298.15 K	821.07	1.2
308.15 K	807.34	1.074
318.15 K	793.85	0.965

CCCCCCCCCC=O [decanal] + CCO
[2]
Conditions	mass density, 298.15 K [kg/m3]	mass density, 308.15 K [kg/m3]	mass density, 318.15 K [kg/m3]	viscosity, 298.15 K [mPa·s]	viscosity, 308.15 K [mPa·s]	viscosity, 318.15 K [mPa·s]
x1 = 0.1011	785.98	778.7	764.59	1.128	0.939	0.808
x1 = 0.2102	787.14	779.48	765.47	1.174	0.987	0.854
x1 = 0.3013	788.25	780.24	766.32	1.213	1.028	0.895
x1 = 0.412	789.78	781.28	767.48	1.262	1.081	0.947
x1 = 0.5105	791.31	782.32	768.64	1.308	1.131	0.997
x1 = 0.5836	792.55	783.15	769.58	1.343	1.169	1.035
x1 = 0.6889	794.48	784.47	771.05	1.395	1.226	1.092
x1 = 0.8008	796.73	785.99	772.76	1.452	1.29	1.157
x1 = 0.9145	799.23	787.68	774.65	1.513	1.358	1.226
x1 = 1	801.24	789.05	776.18	1.56	1.412	1.281
